From publication PMC8401699, “Synthesis, DFT Calculations, Antiproliferative, Bactericidal Activity and Molecular Docking of Novel Mixed-Ligand Salen/8-Hydroxyquinoline Metal Complexes” (Molecules, 2021)
Where two headings read alike, the source gives them in different places.

Key:
HEK-293 cells = assay: MTT cytotoxicity assay, normal cell line HEK-293; format: cell-based
Protocol: A cell suspension was diluted by complete medium to a concentration of 5 × 10^4 cell/mL. Using a micropipette, we pipetted 100 μL aliquots of the cell suspension into each well of 96-well plate (≈5000 cells/well). The 96-well plate was incubated at 37 °C for 24 h to allow cell attachment. After 24 h, cells were treated with 100 µL of growth medium containing […] of the newly synthesized compounds in triplicate. Cells were washed with phosphate-buffered saline (PBS), and fresh relevant medium containing 20 μL MTT in PBS (0.5 mg/mL) was added to the test wells. The plate was further incubated in a CO2 incubator at 37 °C for 4 h, and then MTT assay analysis was performed. The MTT assay technique is based on the reduction of the tetrazolium salt MTT to insoluble purple formazan by metabolically active cells, making their activities quantifiable by spectrophotometry. Accordingly, the formed formazan crystals were dissolved in 120 μL DMSO for each well. Cell viability was determined by measuring the absorbance of each well at 570 nm (and at a reference wavelength of 630 nm) using an ELISA plate reader.

MDA-MB231 cells = assay: MTT cytotoxicity assay, MDA-MB231; format: cell-based, human; details: read-out: IC50 Values, MDA-MB231 Cell Line
Protocol: (§1) The cytotoxic activities of the synthesized ligands and metal complexes against the breast cancer cell line MDA-MB231, the hepatic cellular (Hep-G2), and normal cell line (HEK-293) were assessed by MTT assay. A cell suspension was diluted by complete medium to a concentration of 5 × 10^4 cell/mL. Using a micropipette, we pipetted 100 μL aliquots of the cell suspension into each well of 96-well plate (≈5000 cells/well). The 96-well plate was incubated at 37 °C for 24 h to allow cell attachment. After 24 h, cells were treated with 100 µL of growth medium containing […] of the newly synthesized compounds in triplicate. Cells were washed with phosphate-buffered saline (PBS), and fresh relevant medium containing 20 μL MTT in PBS (0.5 mg/mL) was added to the test wells. […] The MTT assay technique is based on the reduction of the tetrazolium salt MTT to insoluble purple formazan by metabolically active cells, making their activities quantifiable by spectrophotometry. […] Cell viability was determined by measuring the absorbance of each well at 570 nm (and at a reference wavelength of 630 nm) using an ELISA plate reader. […] IC50 values were calculated using Graph Pad Prism version 6.01, 2012 (GraphPad software, San Diego, CA, USA), by plotting the log concentration versus corresponding viability (%) to generate dose–response curves. […]

Hep-G2 cells = assay: MTT cytotoxicity assay, Hep-G2; format: cell-based, human; details: read-out: IC50 Values, Hep-G2 Cell Line
Protocol: as §1

In the case of N.N.[Cl][Pt][Cl] [Cisplatin, reference compound], the IC50 (HEK-293 cells; read-out: IC50 Values, HEK-293 Cell Lines) is reported as 94.1 ± 0.05 µM, the IC50 (MDA-MB231 cells; MDA-MB231 breast carcinoma cells) is reported as 1.87 ± 0.09 µM and the IC50 (Hep-G2 cells; Hep-G2 liver carcinoma cells) is reported as 1550 ± 60 nM.

Oc1ccccc1C=NCCN=Cc1ccccc1O [S, 2,2′-{1,2-ethanediylbis[nitrilo(E)methylylidene]}diphenol] gave an IC50 (HEK-293 cells; Homo sapiens, HEK293, read-out: IC50 Values, HEK-293 Cell Lines) of 93.06 ± 0.04 µM, an IC50 (MDA-MB231 cells; Homo sapiens, MDA-MB-231, MDA-MB231 breast carcinoma cells) of 27.54 ± 0.08 µM and an IC50 (Hep-G2 cells; Homo sapiens, HepG2, Hep-G2 liver carcinoma cells) of 1100 ± 100 nM. It also gave a melting point of 127 °C.
